PMC10178848, “Modulating fast skeletal muscle contraction protects skeletal muscle in animal models of Duchenne muscular dystrophy” (The Journal of Clinical Investigation, 2023)

Test system: psoas S1 (fast skeletal muscle myosin)
Assay: Stopped-flow analysis of Pi release from myosin
Assay type: biochemical, rabbit
Design: dose or concentration left out as unconfirmed
Settings: preincubation with myosin 30 minutes prior to actin
Description: The rate of Pi release from myosin with actin utilized a fluorescent phosphate binding protein, as described previously ([63]). Experiments were performed in 10 mM MOPS, pH 7.0; 5 mM KCL; 1 mM EGTA; 1 mM DTT; 0.5 mM MgCl2. ATP and ADP were removed by incubation with apyrase ([64]). Prior to mixing with 1 mM ATP in a stopped flow device, compound was incubated with 6 μM psoas S1 at 25°C for 30 minutes.

## Cc1ccc(S(=O)(=O)NCc2ccccc2)cc1 [BTS, N-benzyl-p-toluene sulfonamide, reference compound]
  rate of Pi release from myosin with actin: decreased the rate of Pi release
